From the supplement of paper PMC11451515

Tested on: NOMO1
Test: cell viability relative to DMSO control; higher = less cytotoxic
Conditions: 48 h
Summary of the method: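 Viability, reported as a per-plate percentage of DMSO wells with cell-free wells as background, came from CellTiter-Glo One luminescence. Reading took place after 48 h at 37°C. Before that, NOMO1 or SEM (500 cells/well) or P12-Ichikawa (1000 cells/well) leukemia cells, adapted for at least four passages in each medium, were seeded in 1536-well plates (5 μl) and pin-dosed with library compounds in DMSO, 47 μM to 0.79 nM over 11 threefold points.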

[1] = HPLM + 10% dialyzed FBS, 0.000781 µM
[2] = HPLM + 10% dialyzed FBS, 0.00234 µM
[3] = HPLM + 10% dialyzed FBS, 0.00702 µM
[4] = HPLM + 10% dialyzed FBS, 0.0211 µM
[5] = HPLM + 10% dialyzed FBS, 0.0632 µM
[6] = HPLM + 10% dialyzed FBS, 0.19 µM
[7] = HPLM + 10% dialyzed FBS, 0.569 µM
[8] = HPLM + 10% dialyzed FBS, 1.71 µM
[9] = HPLM + 10% dialyzed FBS, 5.12 µM
[10] = HPLM + 10% dialyzed FBS, 15.4 µM
[11] = HPLM + 10% dialyzed FBS, 46.1 µM
[12] = RPMI 5 mM glucose + 10% FBS, 0.000781 µM
[13] = RPMI 5 mM glucose + 10% FBS, 0.00234 µM
[14] = RPMI 5 mM glucose + 10% FBS, 0.00702 µM
[15] = RPMI 5 mM glucose + 10% FBS, 0.0211 µM
[16] = RPMI 5 mM glucose + 10% FBS, 0.0632 µM
[17] = RPMI 5 mM glucose + 10% FBS, 0.19 µM
[18] = RPMI 5 mM glucose + 10% FBS, 0.569 µM
[19] = RPMI 5 mM glucose + 10% FBS, 1.71 µM
[20] = RPMI 5 mM glucose + 10% FBS, 5.12 µM
[21] = RPMI 5 mM glucose + 10% FBS, 15.4 µM
[22] = RPMI 5 mM glucose + 10% FBS, 46.1 µM
[23] = RPMI 5 mM glucose + 10% dialyzed FBS, 0.000781 µM
[24] = RPMI 5 mM glucose + 10% dialyzed FBS, 0.00234 µM
[25] = RPMI 5 mM glucose + 10% dialyzed FBS, 0.00702 µM
[26] = RPMI 5 mM glucose + 10% dialyzed FBS, 0.0211 µM
[27] = RPMI 5 mM glucose + 10% dialyzed FBS, 0.0632 µM
[28] = RPMI 5 mM glucose + 10% dialyzed FBS, 0.19 µM
[29] = RPMI 5 mM glucose + 10% dialyzed FBS, 0.569 µM
[30] = RPMI 5 mM glucose + 10% dialyzed FBS, 1.71 µM
[31] = RPMI 5 mM glucose + 10% dialyzed FBS, 5.12 µM
[32] = RPMI 5 mM glucose + 10% dialyzed FBS, 15.4 µM
[33] = RPMI 5 mM glucose + 10% dialyzed FBS, 46.1 µM

SMILES | cell viability [1] | cell viability [2] | cell viability [3] | cell viability [4] | cell viability [5] | cell viability [6] | cell viability [7] | cell viability [8] | cell viability [9] | cell viability [10] | cell viability [11] | cell viability [12] | cell viability [13] | cell viability [14] | cell viability [15] | cell viability [16] | cell viability [17] | cell viability [18] | cell viability [19] | cell viability [20] | cell viability [21] | cell viability [22] | cell viability [23] | cell viability [24] | cell viability [25] | cell viability [26] | cell viability [27] | cell viability [28] | cell viability [29] | cell viability [30] | cell viability [31] | cell viability [32] | cell viability [33]
CC(C)(C)NC(=O)[C@H]1CC[C@H]2[C@@H]3CC[C@H]4NC(=O)\C=C/[C@]4(C)[C@H]3CC[C@]12C | 76.6% | 94.6% | 109% | 108% | 107% | 99.8% | 112% | 84.3% | 27.2% | 26.8% | 27.4% | 101% | 95.7% | 102% | 96.5% | 96.6% | 111% | 109% | 71% | 20.9% | 18.7% | 14.5% | 95.8% | 105% | 100% | 107% | 107% | 108% | 115% | 102% | 26.3% | 25.2% | 18.8%
Cc1cc(Cl)ccc1OCCCC(=O)NO | 106% | 117% | 107% | 94.8% | 110% | 122% | 117% | 112% | 103% | 67% | 33.5% | 93.5% | 112% | 93.2% | 112% | 113% | 96.9% | 106% | 107% | 94% | 52.3% | 15.9% | 105% | 121% | 101% | 114% | 99.5% | 104% | 119% | 114% | 117% | 73.4% | 31%
N\C1=N\C2=C(N=C[N]2COC(CO)CO)C(=O)N1 | 88.7% | 110% | 116% | 114% | 131% | 120% | 133% | 109% | 110% | 92.2% | 5.43% | 110% | 119% | 114% | 118% | 103% | 107% | 121% | 110% | 116% | 101% | 4.52% | 99.5% | 112% | 99.5% | 102% | 122% | 117% | 117% | 112% | 99.8% | 95.5% | 3.67%
C=CCn1c(=O)c2cnc(Nc3ccc(N4CCN(C)CC4)cc3)nc2n1-c1cccc(C(C)(C)O)n1 | 125% | 116% | 123% | 122% | 125% | 96.2% | 52.1% | 31.8% | 24.3% | 28.1% | 29.2% | 118% | 117% | 138% | 128% | 140% | 132% | 122% | 36.9% | 18.5% | 17.9% | 18.6% |  |  |  |  |  |  |  |  |  |  | 
CC(=O)O[C@@]12CO[C@@H]1C[C@H](O)[C@]3(C)[C@@H]2[C@H](OC(=O)C4=CC=CC=C4)[C@]5(O)C[C@H](OC(=O)C(O)[C@@H](NC(=O)OC(C)(C)C)C6=CC=CC=C6)C(=C(/[C@@H](O)C3=O)C5(C)C)/C (stereo partly drawn) | 32.4% | 37.3% | 34.7% | 39.4% | 42% | 43% | 31.7% | 27.4% | 27.7% | 7.8% | 5.55% | 23.9% | 27% | 25.5% | 28.9% | 28.2% | 27.1% | 24.7% | 24.8% | 20% | 12.6% | 8.59% | 25.2% | 30.6% | 27.8% | 31.5% | 28.9% | 29.7% | 27.3% | 26.2% | 18.8% | 11% | 9.95%
C#C[C@]1(O)CC[C@H]2[C@@H]3CCc4cc(OC)ccc4[C@H]3CC[C@@]21C | 108% | 123% | 114% | 118% | 117% | 114% | 107% | 105% | 109% | 102% | 95.4% | 117% | 124% | 108% | 110% | 123% | 123% | 117% | 108% | 106% | 104% | 93.5% | 115% | 107% | 106% | 124% | 120% | 108% | 103% | 109% | 104% | 103% | 107%
CCN1C[C@]2(OC(=O)c3ccccc3NC(C)=O)CC[C@H](OC)[C@@]34[C@@H]2C[C@@H]([C@@H]13)[C@@]1(O)C[C@H](OC)[C@H]2C[C@@H]4[C@]1(O)[C@H]2OC | 106% | 101% | 118% | 101% | 108% | 88.3% | 118% | 103% | 112% | 93.2% | 114% | 96.3% | 99.4% | 101% | 106% | 103% | 91.6% | 118% | 107% | 95.1% | 101% | 107% | 98% | 104% | 120% | 99.1% | 105% | 105% | 109% | 107% | 111% | 106% | 95.9%
O=C1NC(O)CCN1[C@@H]1O[C@H](CO)[C@@H](O)[C@H]1O (stereo partly drawn) | 145% | 124% | 123% | 142% | 113% | 131% | 143% | 116% | 111% | 92.2% | 21% | 121% | 110% | 104% | 112% | 110% | 110% | 105% | 105% | 109% | 108% | 32.3% | 112% | 108% | 113% | 108% | 110% | 110% | 125% | 126% | 111% | 106% | 34.8%
